Experimental data taken from ChEMBL document CHEMBL4411307, “N,N'-diaryl-bishydrazones in a biphenyl platform: Broad spectrum antifungal agents” (Eur J Med Chem, 2019).
≈ marks a conversion by molar mass, not a printed value. Calls of active or inactive are those of the source. The calls are words filed in the database; no cut-off is given here.

What was measured:
[1] = Selectivity index, ratio of compound concentration showing <20 to <30% hemolysis in mouse RBC to MIC for fluconazole/ITC-resistant Candida albicans ATCC 64124; type: toxicity; conditions: red blood cells (erythrocytes), read-out: Selectivity Index
[2] = Selectivity index, ratio of compound concentration showing <20 to <30% hemolysis in mouse RBC to MIC for Aspergillus flavus ATCC MYA-3631; type: toxicity; conditions: mouse red blood cells (RBC), read-out: Selectivity Index
Aspergillus flavus = assay: Antifungal activity against Aspergillus flavus ATCC MYA-3631 measured after 48 hrs by CLSI M38-A2 protocol based method; type: functional; conditions: ATCC MYA-3631, 48 h
Candida albicans [3] = assay: Antifungal activity against fluconazole/ITC-resistant Candida albicans ATCC MYA-1003 measured after 48 hrs by CLSI M27-A3 protocol based method; type: functional; conditions: ATCC MYA-1003, 48 h
BEAS-2B = assay: Cytotoxicity against human BEAS2B cells after 24 hrs by resazurin based assay; type: cell-based
Candida albicans [4] = assay: Antifungal activity against fluconazole/ITC-resistant Candida albicans ATCC 10231 measured after 48 hrs by CLSI M27-A3 protocol based method; type: functional; conditions: ATCC 10231, 48 h
[5] = Selectivity index, ratio of compound concentration showing <20 to <30% hemolysis in mouse RBC to MIC for fluconazole/ITC-susceptible Candida albicans ATCC MYA-2876; type: toxicity; conditions: red blood cells (erythrocytes), read-out: Selectivity Index
[6] = Selectivity index, ratio of compound concentration showing <20 to <30% hemolysis in mouse RBC to MIC for Candida glabrata ATCC 2001; type: toxicity; conditions: mouse red blood cells (RBC), read-out: Selectivity Index
[7] = Selectivity index, ratio of compound concentration showing <20 to <30% hemolysis in mouse RBC to MIC for Aspergillus nidulans ATCC 38163; type: toxicity; conditions: mouse red blood cells (RBC), read-out: Selectivity Index
[8] = Selectivity index, ratio of CC50 for human A549 cells to MIC for fluconazole/ITC-resistant Candida albicans ATCC 10231; type: toxicity; conditions: read-out: Selectivity Index
[9] = Hemolytic activity in mouse RBC at 31.3 ug/ml after 1 hr relative to control; type: ADME, cell-based, Erythrocyte; conditions: red blood cells (erythrocytes), read-out: Activity
[10] = Selectivity index, ratio of CC50 for human A549 cells to MIC for Aspergillus nidulans ATCC 38163; type: toxicity; conditions: read-out: Selectivity Index
Nakaseomyces glabratus = assay: Antifungal activity against Candida glabrata ATCC 2001 measured after 48 hrs by CLSI M27-A3 protocol based method; type: functional; conditions: CBS 138, 48 h
[11] = Selectivity index, ratio of compound concentration showing <20 to <30% hemolysis in mouse RBC to MIC for fluconazole/ITC-susceptible Candida albicans ATCC MYA-2310; type: toxicity; conditions: mouse red blood cells (RBC), read-out: Selectivity Index
[12] = Hemolytic activity in mouse RBC at […] ug/ml after 1 hr relative to control; type: ADME, cell-based, Erythrocyte; conditions: red blood cells (erythrocytes), read-out: Activity
[13] = Hemolytic activity in mouse RBC at 3.9 ug/ml after 1 hr relative to control; type: ADME, cell-based, Erythrocyte; conditions: red blood cells (erythrocytes), read-out: Activity
[14] = Selectivity index, ratio of CC50 for human A549 cells to MIC for Aspergillus terreus ATCC MYA-3633; type: toxicity; conditions: read-out: Selectivity Index
Candida albicans [15] = assay: Antifungal activity against fluconazole/ITC-resistant Candida albicans ATCC MYA-1237 measured after 48 hrs by CLSI M27-A3 protocol based method; type: functional; conditions: ATCC MYA-1237, 48 h
[16] = Selectivity index, ratio of CC50 for human A549 cells to MIC for fluconazole/ITC-resistant Candida albicans ATCC MYA-1237; type: toxicity; conditions: read-out: Selectivity Index
[17] = Selectivity index, ratio of compound concentration showing <20 to <30% hemolysis in mouse RBC to MIC for Aspergillus terreus ATCC MYA-3633; type: toxicity; conditions: mouse red blood cells (RBC), read-out: Selectivity Index
[18] = Selectivity index, ratio of CC50 for human A549 cells to MIC for Candida parapsilosis ATCC 22019; type: toxicity; conditions: read-out: Selectivity Index
Candida parapsilosis = assay: Antifungal activity against Candida parapsilosis ATCC 22019 measured after 48 hrs by CLSI M27-A3 protocol based method; type: functional; conditions: Lodderomyces parapsilosis, ATCC 22019, 48 h
[19] = Hemolytic activity in mouse RBC at 1.95 ug/ml after 1 hr relative to control; type: ADME, cell-based, Erythrocyte; conditions: red blood cells (erythrocytes), read-out: Activity
[20] = Selectivity index, ratio of CC50 for human A549 cells to MIC for Candida glabrata ATCC 2001; type: toxicity; conditions: read-out: Selectivity Index
[21] = Selectivity index, ratio of CC50 for human A549 cells to MIC for fluconazole/ITC-resistant Candida albicans ATCC 64124; type: toxicity; conditions: read-out: Selectivity Index
Candida albicans [22] = assay: Antifungal activity against fluconazole/ITC-resistant Candida albicans ATCC 64124 measured after 48 hrs by CLSI M27-A3 protocol based method; type: functional; conditions: ATCC 64124, 48 h
Candida albicans [23] = assay: Antifungal activity against fluconazole/ITC-susceptible Candida albicans ATCC MYA-2310 measured after 48 hrs by CLSI M27-A3 protocol based method; type: functional; conditions: ATCC MYA-2310, 48 h
[24] = Selectivity index, ratio of compound concentration showing <20 to <30% hemolysis in mouse RBC to MIC for fluconazole/ITC-resistant Candida albicans ATCC MYA-1003; type: toxicity; conditions: mouse red blood cells (RBC), read-out: Selectivity Index
Staphylococcus aureus = assay: Antibacterial activity against methicillin-resistant Staphylococcus aureus; type: functional, organism-based
Pichia kudriavzevii = assay: Antifungal activity against Candida krusei ATCC 6258 measured after 48 hrs by CLSI M27-A3 protocol based method; type: functional; conditions: ATCC 6258, 48 h
[25] = Selectivity index, ratio of compound concentration showing <20 to <30% hemolysis in mouse RBC to MIC for fluconazole/ITC-resistant Candida albicans ATCC MYA-1237; type: toxicity; conditions: mouse red blood cells (RBC), read-out: Selectivity Index
[26] = Hemolytic activity in mouse RBC at 62.5 ug/ml after 1 hr relative to control; type: ADME, cell-based, Erythrocyte; conditions: red blood cells (erythrocytes), read-out: Activity
[27] = Hemolytic activity in mouse RBC at […] after 1 hr relative to control; type: ADME, cell-based, Erythrocyte; conditions: red blood cells (erythrocytes), read-out: Activity; further: tested at 0.48 µg/mL
[28] = Selectivity index, ratio of compound concentration showing <20 to <30% hemolysis in mouse RBC to MIC for Candida krusei ATCC 6258; type: toxicity; conditions: mouse red blood cells (RBC), read-out: Selectivity Index
Enterococcus = assay: Antibacterial activity against vancomycin-resistant Enterococcus; type: functional, organism-based
[29] = Selectivity index, ratio of CC50 for human A549 cells to MIC for fluconazole/ITC-resistant Candida albicans ATCC MYA-1003; type: toxicity; conditions: read-out: Selectivity Index
[30] = Selectivity index, ratio of CC50 for human A549 cells to MIC for Candida krusei ATCC 6258; type: toxicity; conditions: read-out: Selectivity Index
[31] = Hemolytic activity in mouse RBC at 7.8 ug/ml after 1 hr relative to control; type: ADME, cell-based, Erythrocyte; conditions: red blood cells (erythrocytes), read-out: Activity
[32] = Selectivity index, ratio of compound concentration showing <20 to <30% hemolysis in mouse RBC to MIC for Candida parapsilosis ATCC 22019; type: toxicity; conditions: mouse red blood cells (RBC), read-out: Selectivity Index
Aspergillus terreus = assay: Antifungal activity against Aspergillus terreus ATCC MYA-3633 measured after 48 hrs by CLSI M38-A2 protocol based method; type: functional; conditions: ATCC MYA-3633, 48 h
Aspergillus nidulans = assay: Antifungal activity against Aspergillus nidulans ATCC 38163 measured after 48 hrs by CLSI M38-A2 protocol based method; type: functional; conditions: ATCC 38163, 48 h
A549 = assay: Cytotoxicity against human A549 cells after 24 hrs by resazurin based assay; type: cell-based; conditions: a549, 24 h
[33] = Selectivity index, ratio of CC50 for human A549 cells to MIC for fluconazole/ITC-susceptible Candida albicans ATCC MYA-2876; type: toxicity; conditions: read-out: Selectivity Index
Listeria monocytogenes = assay: Antibacterial activity against Listeria monocytogenes; type: functional, organism-based
Candida albicans [34] = assay: Antifungal activity against fluconazole/ITC-susceptible Candida albicans ATCC MYA-2876 measured after 48 hrs by CLSI M27-A3 protocol based method; type: functional; conditions: ATCC MYA-2876, 48 h
[35] = Selectivity index, ratio of compound concentration showing <20 to <30% hemolysis in mouse RBC to MIC for fluconazole/ITC-resistant Candida albicans ATCC 90819; type: toxicity; conditions: red blood cells (erythrocytes), read-out: Selectivity Index
[36] = Selectivity index, ratio of CC50 for human A549 cells to MIC for fluconazole/ITC-susceptible Candida albicans ATCC MYA-2310; type: toxicity; conditions: read-out: Selectivity Index
[37] = Selectivity index, ratio of compound concentration showing <20 to <30% hemolysis in mouse RBC to MIC for fluconazole/ITC-resistant Candida albicans ATCC 10231; type: toxicity; conditions: red blood cells (erythrocytes), read-out: Selectivity Index
[38] = Selectivity index, ratio of CC50 for human A549 cells to MIC for fluconazole/ITC-resistant Candida albicans ATCC 90819; type: toxicity; conditions: read-out: Selectivity Index
Candida albicans [39] = assay: Antifungal activity against fluconazole/ITC-resistant Candida albicans ATCC 90819 measured after 48 hrs by CLSI M27-A3 protocol based method; type: functional; conditions: ATCC 90819, 48 h

Work on `Fc1cccc(N/N=C/c2ccc(-c3ccc(/C=N/Nc4cccc(F)c4)cc3)cc2)c1` yielded a selectivity ratio [1] of 1 to 32, a selectivity ratio [2] of 1 to 32 and an MIC (Aspergillus flavus) of 31.3 µg/mL (≈ 73.4 µM). It also gave an MIC (Candida albicans [3]) of over 31.3 µg/mL, a CC50 (BEAS-2B) of 16 µg/mL (≈ 37.5 µM) and an MIC (Candida albicans [4]) of 7.8 µg/mL (≈ 18.3 µM). It also gave a selectivity ratio [5] of 1 to 32, a selectivity ratio [6] of 1 to 32 and a selectivity ratio [7] of 1 to 32. For the same compound, the selectivity ratio [8] was 4, the hemolysis at 1 h, 31.3 ug/ml [9] was 10.3% and the selectivity ratio [10] was 1. For the same compound, the MIC (Nakaseomyces glabratus) was over 31.3 µg/mL, the selectivity ratio [11] was 1 to 32 and the hemolysis at 1 h, 15.6 ug/ml ([12]; at 15.6 µg/mL) was 7.7%. For the same compound, the hemolysis at 1 h, 0.975 ug/ml [12] was 0.8%, the hemolysis at 1 h, 3.9 ug/ml [13] was 3.2% and the selectivity ratio [14] was 1. For the same compound, the MIC (Candida albicans [15]) was over 31.3 µg/mL, the selectivity ratio [16] was 1 and the selectivity ratio [17] was 1 to 32. For the same compound, the selectivity ratio [18] was 8, the MIC (Candida parapsilosis) was 3.9 µg/mL (≈ 9.14 µM) and the hemolysis at 1 h, 1.95 ug/ml [19] was 0%. It also gave a selectivity ratio [20] of 1, a selectivity ratio [21] of 1 and an MIC (Candida albicans [22]) of over 31.3 µg/mL. The MIC (Candida albicans [23]) was over 31.3 µg/mL, the selectivity ratio [24] was 1 to 32 and the Activity (Staphylococcus aureus) was “inactive”. The MIC (Pichia kudriavzevii) was 15.6 µg/mL (≈ 36.6 µM), the selectivity ratio [25] was 1 to 32 and the hemolysis at 1 h, 62.5 ug/ml [26] was 13.6%. For the same compound, the hemolysis at 1 h, […] [27] was 0.2%, the selectivity ratio [28] was 1 to 32 and the Activity (Enterococcus) was “inactive”. It also gave a selectivity ratio [29] of 1, a selectivity ratio [30] of 2 and a hemolysis at 1 h, 7.8 ug/ml [31] of 2.6%. It also gave a selectivity ratio [32] of 1 to 32, an MIC (Aspergillus terreus) of over 31.3 µg/mL and an MIC (Aspergillus nidulans) of over 31.3 µg/mL. For the same compound, the CC50 (A549) was over 31 µg/mL, the selectivity ratio [33] was 1 and the Activity (Listeria monocytogenes) was “inactive”. It also gave an MIC (Candida albicans [34]) of over 31.3 µg/mL, a selectivity ratio [35] of 1 to 32 and a selectivity ratio [36] of 1. It also gave a selectivity ratio [37] of 1 to 32, a selectivity ratio [38] of 1 and an MIC (Candida albicans [39]) of over 31.3 µg/mL.
